How the values were obtained:
Test in all cases: fitness (endpoint OD595 vs no drug) (fraction); higher = more growth
S. aureus DSM 20231 = tested on: S. aureus DSM 20231
Procedure, shortened: (§1)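 Cultures at OD595 0.01 were dispensed into 384-well plates in TSB, LB Lennox or CY and incubated at 37 °C. Every 30 min for 14 h, OD595 was read and corrected by the first reading. Fitness is the optical density at entry into stationary phase relative to the robust mean of no-drug control wells, capped at 1.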

B. subtilis 168 = tested on: B. subtilis 168
Procedure, shortened: as §1

S. aureus Newman = tested on: S. aureus Newman
Procedure, shortened: as §1

S. pneumoniae D39V = tested on: S. pneumoniae D39V
Procedure, shortened: as §1

[1] = first compound 0.078 µg/mL, partner 0.375 µg/mL
[2] = first compound 0.078 µg/mL, partner 0.75 µg/mL
[3] = first compound 0.078 µg/mL, partner 1.5 µg/mL
[4] = first compound 0.156 µg/mL, partner 0.375 µg/mL
[5] = first compound 0.156 µg/mL, partner 0.75 µg/mL
[6] = first compound 0.156 µg/mL, partner 1.5 µg/mL
[7] = first compound 0.312 µg/mL, partner 0.375 µg/mL
[8] = first compound 0.312 µg/mL, partner 0.75 µg/mL
[9] = first compound 0.312 µg/mL, partner 1.5 µg/mL
[10] = first compound 0.625 µg/mL, partner 0.125 µg/mL
[11] = first compound 0.625 µg/mL, partner 0.25 µg/mL
[12] = first compound 0.625 µg/mL, partner 0.5 µg/mL
[13] = first compound 1.25 µg/mL, partner 0.125 µg/mL
[14] = first compound 1.25 µg/mL, partner 0.25 µg/mL
[15] = first compound 1.25 µg/mL, partner 0.5 µg/mL
[16] = first compound 2.5 µg/mL, partner 0.125 µg/mL
[17] = first compound 2.5 µg/mL, partner 0.25 µg/mL
[18] = first compound 2.5 µg/mL, partner 0.5 µg/mL

CO/N=C(\C(=O)N[C@@H]1C(=O)N2C(C(=O)O)=C(COC(C)=O)CS[C@H]12)c1csc(N)n1 [Cefotaxime] + N[C@@H]1CONC1=O [Cycloserine D]
fitness (S. aureus DSM 20231; first compound 0.039 µg/mL, partner 0.375 µg/mL): 0.822 | fitness (S. aureus DSM 20231; first compound 0.039 µg/mL, partner 0.75 µg/mL): 0.822 | fitness (S. aureus DSM 20231; first compound 0.039 µg/mL, partner 1.5 µg/mL): 0.835 | fitness (S. aureus DSM 20231; [1]): 0.789 | fitness (S. aureus DSM 20231; [2]): 0.853 | fitness (S. aureus DSM 20231; [3]): 0.748 | fitness (S. aureus DSM 20231; [4]): 0.736 | fitness (S. aureus DSM 20231; [5]): 0.772 | fitness (S. aureus DSM 20231; [6]): 0.696 | fitness (S. aureus DSM 20231; [7]): 0.652 | fitness (S. aureus DSM 20231; [8]): 0.638 | fitness (S. aureus DSM 20231; [9]): 0.584 | fitness (B. subtilis 168; first compound 0.00775 µg/mL, partner 0.125 µg/mL, one replicate): 0.876 | fitness (B. subtilis 168; first compound 0.00775 µg/mL, partner 0.25 µg/mL, one replicate): 0.888 | fitness (B. subtilis 168; first compound 0.00775 µg/mL, partner 0.5 µg/mL, one replicate): 0.802 | fitness (B. subtilis 168; first compound 0.0155 µg/mL, partner 0.125 µg/mL, one replicate): 0.666 | fitness (B. subtilis 168; first compound 0.0155 µg/mL, partner 0.25 µg/mL, one replicate): 0.756 | fitness (B. subtilis 168; first compound 0.0155 µg/mL, partner 0.5 µg/mL, one replicate): 0.733 | fitness (B. subtilis 168; first compound 0.031 µg/mL, partner 0.125 µg/mL, one replicate): 0.554 | fitness (B. subtilis 168; first compound 0.031 µg/mL, partner 0.25 µg/mL, one replicate): 0.561 | fitness (B. subtilis 168; first compound 0.031 µg/mL, partner 0.5 µg/mL, one replicate): 0.566 | fitness (B. subtilis 168; first compound 0.0625 µg/mL, partner 0.125 µg/mL, one replicate): 0.498 | fitness (B. subtilis 168; first compound 0.0625 µg/mL, partner 0.25 µg/mL, one replicate): 0.524 | fitness (B. subtilis 168; first compound 0.0625 µg/mL, partner 0.5 µg/mL, one replicate): 0.477 | fitness (B. subtilis 168; first compound 0.125 µg/mL, partner 0.125 µg/mL, one replicate): 0.353 | fitness (B. subtilis 168; first compound 0.125 µg/mL, partner 0.25 µg/mL, one replicate): 0.401 | fitness (B. subtilis 168; first compound 0.125 µg/mL, partner 0.5 µg/mL, one replicate): 0.363 | fitness (B. subtilis 168; first compound 0.25 µg/mL, partner 0.125 µg/mL, one replicate): 0.296 | fitness (B. subtilis 168; first compound 0.25 µg/mL, partner 0.25 µg/mL, one replicate): 0.31 | fitness (B. subtilis 168; first compound 0.25 µg/mL, partner 0.5 µg/mL, one replicate): 0.267 | fitness (B. subtilis 168; first compound 0.5 µg/mL, partner 0.125 µg/mL): 0.333 | fitness (B. subtilis 168; first compound 0.5 µg/mL, partner 0.25 µg/mL): 0.28 | fitness (B. subtilis 168; first compound 1 µg/mL, partner 0.125 µg/mL): 0.162 | fitness (B. subtilis 168; first compound 1 µg/mL, partner 0.25 µg/mL): 0.169 | fitness (B. subtilis 168; first compound 1 µg/mL, partner 0.5 µg/mL): 0.162 | fitness (B. subtilis 168; first compound 2 µg/mL, partner 0.125 µg/mL): 0.16 | fitness (B. subtilis 168; first compound 2 µg/mL, partner 0.25 µg/mL): 0.182 | fitness (B. subtilis 168; first compound 2 µg/mL, partner 0.5 µg/mL): 0.15 | fitness (S. aureus Newman; [1]): 0.736 | fitness (S. aureus Newman; [2]): 0.828 | fitness (S. aureus Newman; [3]): 0.785 | fitness (S. aureus Newman; [4]): 0.601 | fitness (S. aureus Newman; [5]): 0.604 | fitness (S. aureus Newman; [6]): 0.629 | fitness (S. aureus Newman; [7]): 0.345 | fitness (S. aureus Newman; [8]): 0.326 | fitness (S. aureus Newman; [9]): 0.305 | fitness (S. aureus Newman; first compound 0.625 µg/mL, partner 0.375 µg/mL): 0.186 | fitness (S. aureus Newman; first compound 0.625 µg/mL, partner 0.75 µg/mL): 0.121 | fitness (S. aureus Newman; first compound 0.625 µg/mL, partner 1.5 µg/mL): 0.0813 | fitness (S. aureus Newman; first compound 1.25 µg/mL, partner 0.375 µg/mL): 0.0332 | fitness (S. aureus Newman; first compound 1.25 µg/mL, partner 0.75 µg/mL): 0.0383 | fitness (S. aureus Newman; first compound 1.25 µg/mL, partner 1.5 µg/mL): 0.0209 | fitness (S. aureus Newman; first compound 2.5 µg/mL, partner 0.375 µg/mL): 0.0595 | fitness (S. aureus Newman; first compound 2.5 µg/mL, partner 0.75 µg/mL): 0.0506 | fitness (S. aureus Newman; first compound 2.5 µg/mL, partner 1.5 µg/mL): 0.0484

COc1cccc2c1C(=O)c1c(O)c3c(c(O)c1C2=O)C[C@@](O)(C(=O)CO)C[C@@H]3O[C@H]1C[C@H](N)[C@H](O)[C@H](C)O1 [Doxorubicin] + CO/N=C(\C(=O)N[C@@H]1C(=O)N2C(C(=O)[O-])=C(C[N+]3(C)CCCC3)CS[C@H]12)c1csc(N)n1 [Cefepime]
fitness (S. aureus DSM 20231; [10]): 0.861 | fitness (S. aureus DSM 20231; [11]): 0.826 | fitness (S. aureus DSM 20231; [12]): 0.741 | fitness (S. aureus DSM 20231; [13]): 0.828 | fitness (S. aureus DSM 20231; [14]): 0.814 | fitness (S. aureus DSM 20231; [15]): 0.71 | fitness (S. aureus DSM 20231; [16]): 0.721 | fitness (S. aureus DSM 20231; [17]): 0.656 | fitness (S. aureus DSM 20231; [18]): 0.62 | fitness (S. aureus Newman; [10]): 0.783 | fitness (S. aureus Newman; [11]): 0.762 | fitness (S. aureus Newman; [12]): 0.659 | fitness (S. aureus Newman; [13]): 0.773 | fitness (S. aureus Newman; [14]): 0.744 | fitness (S. aureus Newman; [15]): 0.732 | fitness (S. aureus Newman; [16]): 0.716 | fitness (S. aureus Newman; [17]): 0.696 | fitness (S. aureus Newman; [18]): 0.683 | fitness (S. pneumoniae D39V; first compound 0.25 µg/mL, partner 0.007 µg/mL): 0.937 | fitness (S. pneumoniae D39V; first compound 0.25 µg/mL, partner 0.0078 µg/mL): ≥ 1 | fitness (S. pneumoniae D39V; first compound 0.25 µg/mL, partner 0.014 µg/mL): 0.912 | fitness (S. pneumoniae D39V; first compound 0.25 µg/mL, partner 0.0155 µg/mL): 0.974 | fitness (S. pneumoniae D39V; first compound 0.25 µg/mL, partner 0.028 µg/mL): 0.783 | fitness (S. pneumoniae D39V; first compound 0.5 µg/mL, partner 0.007 µg/mL): 0.949 | fitness (S. pneumoniae D39V; first compound 0.5 µg/mL, partner 0.0078 µg/mL): ≥ 1 | fitness (S. pneumoniae D39V; first compound 0.5 µg/mL, partner 0.014 µg/mL): 0.935 | fitness (S. pneumoniae D39V; first compound 0.5 µg/mL, partner 0.0155 µg/mL): 0.994 | fitness (S. pneumoniae D39V; first compound 0.5 µg/mL, partner 0.028 µg/mL): 0.846 | fitness (S. pneumoniae D39V; first compound 1 µg/mL, partner 0.007 µg/mL): 0.957 | fitness (S. pneumoniae D39V; first compound 1 µg/mL, partner 0.0078 µg/mL): 0.938 | fitness (S. pneumoniae D39V; first compound 1 µg/mL, partner 0.014 µg/mL): 0.942 | fitness (S. pneumoniae D39V; first compound 1 µg/mL, partner 0.0155 µg/mL): 0.917 | fitness (S. pneumoniae D39V; first compound 1 µg/mL, partner 0.028 µg/mL): 0.825
